Data taken from PMC3646032 (PLoS ONE, 2013).
Several values for one entry are separate records, joined by “and”; a condition that tells them apart may be missing. Equal values may be shown once.

Experiments:
[1] = molecular target: T1, MtSK (Mycobacterium tuberculosis, UniProt P9WPY3); assay: Equilibrium fluorescence spectroscopy, intrinsic tyrosine fluorescence; format: binding; settings: 25°C, pH 7.6
Experimental: MtSK intrinsic protein fluorescence measurements were carried out to both determine the order of substrate/product addition/dissociation on/from the catalytic site and distinguish the enzyme kinetic mechanism. As MtSK has no tryptophan residues, changes in protein tyrosine fluorescence (the polypeptide chain of MtSK has 3 Tyr residues) upon ligand binding were monitored. Fluorescence measurements were carried out in a RF-5301 PC Spectrofluorophotometer (Shimadzu) at 25°C. Excitation wavelength was 280 nm and emission spectra were collected from 300 to 500 nm. The maximum values of fluorescence intensity at 315 nm values were plotted as a function of increasing ligand concentration. Excitation and emission slits were 5 nm. As protein tyrosine typically has a low sensitivity (low molar absorption coefficient and low fluorescence quantum yield), MtSK concentration for binding experiments was 10 µM. […]
Equilibrium fluorescence spectroscopy data were fitted to Eq. 4, in which F is the observed fluorescence, F 0 is the initial fluorescence, F ∞ is the maximum change in fluorescence at saturating ligand (L) concentration, and K D represents the equilibrium dissociation constant for protein:ligand binary complex formation.

[2] = molecular target: T1, MtSK; assay: biochemical; format: binding; settings: 298.15 K, Hepes, pH 7.6
[3] = system: EcSK (SK from Erwinia chrysanthemi); design: method as in PMID 11369852; settings: cited from earlier work
[4] = system: E. coli SKII (aroL-encoded); settings: cited from earlier work
[5] = 1-COOH, in solution; cited from earlier work
[6] = system: E. coli SKI (aroK-encoded); settings: cited from earlier work
[7] = molecular target: M. tuberculosis Shikimate Kinase (MtSK) (Mycobacterium tuberculosis, UniProt P9WPY3); format: biochemical
[8] = molecular target: T1, MtSK; settings: cited from earlier work
[9] = molecular target: EcSK (aroL-encoded SK from Erwinia chrysanthemi); design: method as in PMID 11369852; settings: cited from earlier work

Chain of M. tuberculosis Shikimate Kinase (MtSK) (P9WPY3 2-176): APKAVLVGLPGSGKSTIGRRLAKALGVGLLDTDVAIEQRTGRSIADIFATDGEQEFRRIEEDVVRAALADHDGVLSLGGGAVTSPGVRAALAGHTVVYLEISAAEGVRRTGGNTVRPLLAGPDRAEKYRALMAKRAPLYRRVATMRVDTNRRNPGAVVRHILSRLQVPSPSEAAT
T1 sequence (P9WPY3 2-176): as above

O=C(O)C1=C[C@@H](OP(=O)(O)O)[C@@H](O)[C@H](O)C1 [S3P, shikimate 3-phosphate]
change in intrinsic protein fluorescence upon binding to free MtSK [1]: No change in protein fluorescence
binding to free enzyme detected by ITC [2]: no binding

O=C(O)C1=C[C@@H](O)[C@@H](O)[C@H](O)C1 [SKH, [3R-(3α,4α,5β)]3,4,5-trihydroxy-1-cyclohexene-1-carboxylic acid]
K SKH [3]: 310 µM
K SKH [4]: 200 µM
pK a [5]: 4.47
K SKH [6]: 20×10 ^3 µM
KSKH [6]: 20 mM

Nc1ncnc2c1ncn2[C@@H]1O[C@H](COP(=O)(O)OP(=O)(O)OP(=O)(O)O)[C@@H](O)[C@H]1O [ATP, adenosine 5'-triphosphate]
K MgATP [3]: 620 µM
k cat/KMgATP [3]: 56000 M⁻¹ s⁻¹
K MgATP (Michaelis constant) ([7]; pH 7.6): 112 µM and 112 (±4) µM
k cat/KMgATP ([7]; true steady-state, 25°C, pH 7.6): 5.4 (±0.7)×10^5 M^−1 s^−1
K MgATP [4]: 160 µM
k cat/KMgATP [4]: 200000 M⁻¹ s⁻¹
K MgATP [8]: 83 (±4) µM
k cat/KMgATP [8]: 530000 M⁻¹ s⁻¹
-TΔS [2]: 0.044 (±0.007) kcal mol^−1
Kd [2]: 196 µM
ΔG [2]: −5.1 (±0.8) kcal mol^−1
ΔH [2]: −5.1 (±0.3) kcal mol^−1
ΔS [2]: −0.15 (±0.02) cal mol^−1 K^−1
Kd [9]: 2600 µM

c1c[nH]cn1 [imidazole]
enzyme inhibition of MtSK activity ([7]; 50 mM imidazole in assay mixture): No enzyme inhibition
enzyme velocity of MtSK ([7]; assay mixture containing 50 mM imidazole (9.2 U mL^−1 in its absence)): 9.5 U mL^−1

Nc1ncnc2c1ncn2[C@@H]1O[C@H](COP(=O)(O)OP(=O)(O)O)[C@@H](O)[C@H]1O [ADP, adenosine 5′-diphosphate]
-TΔS [2]: 7.9 (±0.2) kcal mol^−1
Kd [2]: 562 µM
ΔG [2]: −4.4 (±0.2) kcal mol^−1
ΔH [2]: −12.4 (±0.2) kcal mol^−1
ΔS [2]: −27 (±1) cal mol^−1 K^−1
